Experiments:
Type in all cases: biochemical
human FAK = biological target: T1, human FAK (Homo sapiens, UniProt Q05397); test: FAK autophosphorylation inhibition, time resolved fluorescence (HTRF) assay; details: for inhibition at 30 µM: 30 μM (values marked *), read-out: FAK % inhib at 30* μM; for inhibition at 10 µM: read-out: FAK % inhib at 10 μM
T1 construct: The complete cDNA of human FAK; made in house; host or cells: baculovirus expression system (vector pFastBac HTc)
Method: The inhibitory activity of the compounds on FAK is determined by measuring the inhibition of the autophosphorylation of the enzyme using a time resolved fluorescence (HTRF) assay.
The complete cDNA of human FAK, the N-terminal end of which was labeled with histidine, was cloned into a baculovirus expression vector pFastBac HTc. The protein was expressed and purified to approximately 70% homogeneity.
The kinase activity is determined by incubating the enzyme (6.6 μg/ml) with various concentrations of test compound in a 50 mM Hepes buffer, pH=7.2, containing 10 mM MgCl2, 100 μM Na3VO4 and 15 μM d'ATP for 1 hour at 37° C. The enzyme reaction is stopped by adding Hepes buffer, pH=7.0, containing […], 133 mM EDTA and 0.1% BSA, and the labeling is carried out, over 1 to 2 hours at ambient temperature, by adding to this buffer an anti-Histidine antibody labeled with XL665 and a monoclonal antibody phosphospecific for tyrosine, conjugated to europium cryptate (Eu-K). The characteristics of the two fluorophores are available in G. Mathis et al., Anticancer Research, 1997, 17, pages 3011-3014. The transfer of energy from the excited europium cryptate to the XL665 acceptor is proportional to the degree of autophosphorylation of FAK. The long-lived signal specific for XL-665 is measured in a Packard Discovery plate counter. All the assays are carried out in duplicate and the mean of the two assays is calculated. The inhibition of the FAK autophosphorylation activity with compounds of the invention is expressed as percentage inhibition compared to a control whose activity is measured in the absence of test compound. The [signal at 665 nm/signal at 620 nm] ratio is used for the calculation of the % inhibition.

human KDR enzyme = biological target: T2, human KDR enzyme (Homo sapiens, UniProt P35968); test: KDR substrate (PLCγ) phosphorylation, scintillation assay; details: 10 μM; for inhibition at 10 µM: read-out: KDR % inhib at 10 μM
T2 construct: The cytoplasmic domain of the human KDR enzyme; GST; made in house; host or cells: SF21 insect cells (baculovirus)
Method: The inhibitory effect of the compounds is determined in an assay of substrate phosphorylation by the KDR enzyme in vitro using a scintillation technique (96-well plate, NEN).
The cytoplasmic domain of the human KDR enzyme was cloned in the form of a GST fusion into the baculovirus expression vector pFastBac. The protein was expressed in SF21 cells and purified to approximately 60% homogeneity.
The KDR kinase activity is measured in 20 mM MOPS, 10 mM MgCl2, 10 mM MnCl2, 1 mM DTT, 2.5 mM EGTA, 10 mM β-glycerophosphate, pH=7.2, in the presence of 10 mM MgCl2, 100 μM Na3VO4, 1 mM NaF. 10 μl of the compound are added to 70 μl of kinase buffer containing 100 ng of KDR enzyme at 4° C. The reaction is triggered by adding 20 μl of solution containing 2 μg of substrate (SH2-SH3 fragment of PLCγ expressed in the form of a GST fusion protein), 2 μCi γ^33P[ATP] and 2 μM cold ATP. After incubation for 1 hour at 37° C., the reaction is stopped by adding 1 volume (100 μl) of 200 mM EDTA. The incubation buffer is removed and the wells are washed three times with 300 μl of PBS. The radioactivity is measured in each well using Top Count NXT radioactivity counter (Packard).
The background noise is determined by measuring the radioactivity in four different wells containing the radioactive ATP and the substrate alone.
A control for total activity is measured in four different wells containing all the reagents (γ^33P-[ATP], KDR and PLCγ substrate) but in the absence of compound.
The inhibition of the KDR activity with the compound of the invention is expressed as percentage inhibition of the control activity determined in the absence of compound.
The compound SU5614 (Calbiochem) (1 μM) is included in each plate as an inhibition control.

Aurora2 kinase = biological target: T3, Aurora2 kinase (Homo sapiens, UniProt O14965); test: Aurora2 kinase radioactivity scintillation assay using nickel chelate (NuMA substrate); details: 10 μM; for inhibition at 10 µM: read-out: Aurora2 % inhib at 10 μM
T3 construct: A complete recombinant Aurora2 enzyme; His tag (N); made in house; host or cells: E. coli
T3 sequence (O14965 1-403): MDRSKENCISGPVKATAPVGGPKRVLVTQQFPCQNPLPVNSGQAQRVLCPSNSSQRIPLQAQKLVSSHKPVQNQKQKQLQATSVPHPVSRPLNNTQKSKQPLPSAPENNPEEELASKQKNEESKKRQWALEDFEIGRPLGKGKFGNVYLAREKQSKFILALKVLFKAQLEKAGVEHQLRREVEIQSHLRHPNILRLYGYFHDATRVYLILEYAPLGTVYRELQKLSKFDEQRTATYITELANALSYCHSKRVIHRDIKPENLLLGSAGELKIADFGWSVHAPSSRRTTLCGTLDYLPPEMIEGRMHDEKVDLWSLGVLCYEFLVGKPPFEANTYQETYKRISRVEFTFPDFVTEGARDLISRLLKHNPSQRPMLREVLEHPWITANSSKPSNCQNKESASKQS
Method: The inhibitory effect of compounds with respect to the Aurora2 kinase is determined with a radioactivity scintillation assay using nickel chelate.
A complete recombinant Aurora2 enzyme, the N-terminal end of which was labeled with histidine, was expressed in E. coli and purified to a quality close to homogeneity.
The C-terminal fragment (Q1687-H2101) of a NuMA (Nuclear protein that associates with the Mitotic Apparatus) expressed in E. coli, and the N-terminal end of which was labeled with histidine, was purified by nickel chelate chromatography and used as substrate in the Aurora2 kinase assay. In order to determine the kinase activity, the NuMA substrate is equilibrated by chromatography on a Pharmacia PD10 column, in a buffer (50 mM Tris HCl, pH7.5, 50 mM NaCl, 10 mM MgCl2) to which 10% (v/v) of glycerol and 0.05% (w/v) of NP40 have been added.
The kinase acivitity of Aurora2 is measured by scintillation with nickel chelate (New England Nuclear, model SMP107). Each well contains 100 μl of the following solution: 0.02 μM of Aurora2; 0.5 μM of NuMA substrate; 1 μM of ATP to which 0.5 μCi of ATP-[^33P] has been added. The solutions are incubated for 30 minutes at 37° C. The assay buffer is then removed and the wells are rinsed twice with 300 μl of kinase buffer. The radioactivity is measured in each well using a Packard Model Top Count NXT device.
The background noise is deduced from the measurement of radioactivity by measuring, in duplicate, in wells containing the radioactive ATP alone containing buffered kinase treated in the same way as the other samples.
The activity of the control is determined by measuring, in duplicate, the radioactivity in the complete assay mixture (ATP, Aurora2 and the NuMA substrate) in the absence of test compound.
The inhibition of the Aurora2 with a compound of the invention is expressed as percentage inhibition of the control activity in the absence of test compound. Staurosporine is added to each plate as an inhibition control.

[1] = 10 μM (values without asterisk)

T2 sequence (P35968 786-1356 limits assumed): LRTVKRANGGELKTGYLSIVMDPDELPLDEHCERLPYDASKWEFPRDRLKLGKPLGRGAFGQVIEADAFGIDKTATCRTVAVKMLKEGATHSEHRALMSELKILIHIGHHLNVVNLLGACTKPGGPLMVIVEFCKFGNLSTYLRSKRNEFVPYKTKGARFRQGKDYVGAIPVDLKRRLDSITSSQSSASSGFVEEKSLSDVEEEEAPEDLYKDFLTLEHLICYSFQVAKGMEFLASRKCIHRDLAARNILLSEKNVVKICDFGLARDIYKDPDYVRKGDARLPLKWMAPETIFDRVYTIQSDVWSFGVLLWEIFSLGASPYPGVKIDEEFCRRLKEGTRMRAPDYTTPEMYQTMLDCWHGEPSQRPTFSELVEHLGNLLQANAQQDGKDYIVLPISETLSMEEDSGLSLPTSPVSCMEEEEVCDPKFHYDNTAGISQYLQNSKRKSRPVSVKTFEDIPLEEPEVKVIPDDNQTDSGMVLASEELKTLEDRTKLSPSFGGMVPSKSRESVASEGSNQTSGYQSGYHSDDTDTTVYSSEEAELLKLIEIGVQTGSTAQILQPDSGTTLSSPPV
T1 sequence (Q05397 whole entry): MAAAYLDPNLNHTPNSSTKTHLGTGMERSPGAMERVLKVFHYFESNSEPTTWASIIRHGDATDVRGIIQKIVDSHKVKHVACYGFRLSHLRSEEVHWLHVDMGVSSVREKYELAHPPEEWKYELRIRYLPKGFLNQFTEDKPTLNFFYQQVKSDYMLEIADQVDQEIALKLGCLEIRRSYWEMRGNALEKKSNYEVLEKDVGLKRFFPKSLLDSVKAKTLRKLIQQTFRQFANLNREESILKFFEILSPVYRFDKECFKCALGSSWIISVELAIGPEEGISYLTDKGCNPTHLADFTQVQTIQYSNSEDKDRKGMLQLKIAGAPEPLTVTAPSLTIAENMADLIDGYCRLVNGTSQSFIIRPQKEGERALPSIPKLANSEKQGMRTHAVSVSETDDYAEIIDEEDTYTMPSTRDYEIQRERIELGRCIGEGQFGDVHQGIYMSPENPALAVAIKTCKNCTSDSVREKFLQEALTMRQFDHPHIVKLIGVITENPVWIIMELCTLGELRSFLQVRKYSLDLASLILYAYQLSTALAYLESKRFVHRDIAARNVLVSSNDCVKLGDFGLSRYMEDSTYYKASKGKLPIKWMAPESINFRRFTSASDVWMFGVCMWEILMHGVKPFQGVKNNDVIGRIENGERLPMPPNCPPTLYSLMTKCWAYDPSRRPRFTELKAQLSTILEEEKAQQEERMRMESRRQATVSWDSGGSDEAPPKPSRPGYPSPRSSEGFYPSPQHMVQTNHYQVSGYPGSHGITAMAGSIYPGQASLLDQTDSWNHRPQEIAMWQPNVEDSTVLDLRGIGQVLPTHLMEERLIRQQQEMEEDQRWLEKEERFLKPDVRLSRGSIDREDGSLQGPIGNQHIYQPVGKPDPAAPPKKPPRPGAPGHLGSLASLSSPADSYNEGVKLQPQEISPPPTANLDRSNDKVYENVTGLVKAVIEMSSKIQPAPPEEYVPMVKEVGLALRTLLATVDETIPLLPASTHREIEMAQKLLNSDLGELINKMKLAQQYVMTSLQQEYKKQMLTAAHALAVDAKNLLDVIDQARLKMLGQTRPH

| inhibition at 10 µM (human KDR enzyme) [%] | inhibition at 10 µM (human FAK; [1]) [%] | inhibition at 10 µM (Aurora2 kinase) [%] | also measured | SMILES |
| --- | --- | --- | --- | --- |
| 43 | – | – | inhibition at 30 µM (human FAK): 75% | O=S(=O)(Nc1ccc2[nH]nc(Cl)c2c1)c1ccc(Cl)c(Cl)c1 [Example 2, N-(3-Chloro-1H-indazol-5-yl)-3,4-dichlorobenzenesulfonamide] |
| 26 | – | – | inhibition at 30 µM (human FAK): 80% | CS(=O)(=O)c1ccccc1S(=O)(=O)Nc1ccc2[nH]nc(C#N)c2c1 [Example 5, N-(3-Cyano-1H-indazol-5-yl)-2-methylsulfonylbenzenesulfonamide] |
| 7 | 59 | – | – | O=S(=O)(Nc1cccc(F)c1)c1ccc2[nH]ncc2c1 [Example 11, N-(3-Fluorophenyl)-(1H-indazol-5-yl)sulfonamide] |
| 39 | – | – | inhibition at 30 µM (human FAK): 92% | O=S(=O)(Nc1ccc2[nH]nc(I)c2c1)c1cccc(F)c1 [Example 12, 3-Fluoro-N-(3-iodo-1H-indazol-5-yl)benzenesulfonamide] |
| 13 | – | – | inhibition at 30 µM (human FAK): 67% | O=S(=O)(Nc1ccc2[nH]ncc2c1)c1cccc(F)c1 [Example 15, 3-Fluoro-N-(1H-indazol-5-yl)benzenesulfonamide] |
| 8 | 58 | – | – | O=S(=O)(Nc1ccc2[nH]nc(O)c2c1)c1cccc(F)c1 [Example 16, 3-Fluoro-N-(3-hydroxy-1H-indazol-5-yl)benzenesulfonamide] |
| 46 | 59 | – | – | O=S(=O)(Oc1ccc2[nH]ncc2c1)c1cccc(F)c1 [Example 17, 1H-Indazol-5-yl 3-fluorobenzenesulfonate] |
| 73 | 85 | – | – | CNC(=O)c1n[nH]c2ccc(NS(=O)(=O)c3cccc(F)c3)cc12 [Example 19, N-Methyl-5-(3-fluorobenzenesulfonylamino)-1H-indazole-3-carboxamide] |
| 28 | 76 | – | – | CS(=O)(=O)c1ccccc1S(=O)(=O)Nc1ccc2[nH]nc(C(N)=O)c2c1 [Example 20] |
| 80 | – | – | inhibition at 30 µM (human FAK): 76% | NC(=O)c1n[nH]c2ccc(NS(=O)(=O)c3cccc(F)c3)cc12 [Example 21] |
| 18 | 89 | 84 | – | O=C(Nc1ccccc1)c1n[nH]c2ccc(NS(=O)(=O)c3cccc(F)c3)cc12 [Example 22, N-Phenyl-5-(3-fluorobenzenesulfonylamino)-1H-indazole-3-carboxamide] |
| 13 | 6 | 76 | – | CS(=O)(=O)Nc1n[nH]c2ccc(NS(=O)(=O)c3cccc(F)c3)cc12 [Example 27, 3-Fluoro-N-(3-methylsulfonylamino-1H-indazol-5-yl)benzenesulfonamide] |
| 24 | 84 | 92 | – | CC(=O)Nc1n[nH]c2ccc(NS(=O)(=O)c3cccc(F)c3)cc12 [Example 28, N-[5-(3-Fluorobenzenesulfonylamino)-1H-indazol-3-yl)acetamide] |
| 25 | 32 | 65 | – | CC(=O)Nc1ccccc1-c1n[nH]c2ccc(NS(=O)(=O)c3cccc(F)c3)cc12 [Example 47, N-{2-[5-(3-Fluorobenzenesulfonylamino)-1H-indazol-3-yl]phenyl}acetamide] |
| 82 | 81 | 87 | – | CS(=O)(=O)c1ccccc1S(=O)(=O)Nc1ccc2[nH]nc(-c3cccc(C(=O)O)c3)c2c1 [Example 56, 3-[5-(2-Methylsulfonylbenzenesulfonamino)-1H-indazol-3-yl]benzoic acid] |
| 28 | 79 | 90 | – | CS(=O)(=O)c1ccccc1S(=O)(=O)Nc1ccc2[nH]nc(-c3cccc4cccnc34)c2c1 [Example 67, 2-Methylsulfonyl-N-(3-quinolin-8-yl-1H-indazol-5-yl)benzenesulfonamide] |
| 100 | 91 | 100 | – | O=S(=O)(Nc1ccc2[nH]nc(-c3cc4ccccc4[nH]3)c2c1)c1cccs1 [Example 87, {N-[3-(1H-indol-2-yl)-1H-indazol-5-yl]}thiophene-2-sulfonamide] |
| 81 | 20 | 69 | – | O=S(=O)(Nc1ccc2[nH]nc(-c3ccccc3)c2c1)c1ccc(Br)cc1 [Example 116, 4-Bromo-N-(3-phenyl-1H-indazol-5-yl)-benzenesulfonamide] |
| – | – | – | FAK % inhib at 10 μM (human FAK; 10 μM (values without asterisk), 10 µM): 8%; KDR % inhib at 10 μM (human KDR enzyme): 53%; Aurora2 % inhib at 10 μM (Aurora2 kinase): 52% | CC(=O)Nc1ccc(S(=O)(=O)Nc2ccc3[nH]nc(-c4ccccc4)c3c2)cc1 [Example 118, N-[4-(3-Phenyl-1H-indazol-5-ylsulfamoyl)phenyl]acetamide] |
| – | – | 100 | – | CS(=O)(=O)c1ccccc1S(=O)(=O)Oc1ccc2[nH]nc(-c3nc4ccccc4[nH]3)c2c1 [Example 226, 3-(1H-Benzimidazol-2-yl)-1H-indazol-5-yl-2-methanesulfonylbenzenesulfonate] |
| – | – | 100 | – | CS(=O)(=O)c1ccccc1S(=O)(=O)Oc1ccc2[nH]nc(-c3cc4ccccc4[nH]3)c2c1 [Example 227] |

— patent publication US6858638B2, “Substituted indazoles, compositions containing them, method of production and use” (Aventis Pharma S.A., priority 2002, dated 2005)
